Data from US20220409526A1 (Retina Foundation Of The Southwest, priority 2019, published 2022).
Entries after “also recorded” stand apart in the source; their conditions may differ.

What was measured:
ARPE-19 cells [1] = experiment: ZO-1 staining of cellular junctions; format: cell-based, human
Procedure: ARPE-19 cells were grown on an 8-well slide until confluent. The cells were exposed to 1 mM NAC and NACBE for 24 hours, followed by treatment with 500 μM of HQ for 2 hours. The cells were washed with 3 cycles of PBS, and then fixed with 4% Paraformaldehyde at 4° C. for 30 mins. After fixation the cells were blocked in PBST (0.2% Triton X-100)+1% BSA for 60 mins. Primary antibody (rabbit anti-Zo-1, Invitrogen) was diluted 1/100 in PBST+1% BSA and added overnight at […]. Cells were washed ×3 with PBS and secondary antibody (Donkey anti-Rabbit AF-555, Abcam) was added for 4 hours at RT. Cells were washed ×3 with PBS and mounted with Prolong Diamond Mountant with DAPI (Invitrogen).

ARPE-19 cells [2] = experiment: HPLC analysis of cellular uptake and conversion to NAC; format: in vitro ADME, human; conditions: 1 mM for 1 hour in HBSS
Procedure: ARPE-19 cells were seeded onto a 60 cm^2 dish and was allowed to grow to confluency. The cells were treated with 1 mM NAC and NACBE for 1 hour in HBSS. The drug solution was aspirated and washed twice with HBSS. The cells were scraped with the aid of methanol (˜1 mL) and collected into 2 mL centrifuge tubes. The cell suspension in methanol was sonicated (for cell lysis) in a water bath for 30 minutes and was centrifuged at 14,000 RPM for 15 minutes. The supernatant was transferred to a HPLC vial and methanol was evaporated under a stream of nitrogen.
The sample was resuspended in 50 μL of methanol before injecting into the HPLC system. Samples and standard (20 μL) were injected with an autosampler. Separation was conducted by 0.8 mL/min gradient elution with a water/0.10% formic acid and acetonitrile mobile phase on a 250×4.6-mm ([…]) C18 column (Restek, Pinnacle II) maintained at 25° C. The samples were monitored at 205 nm with a UV detector and analyzed with Agilent Chemstation software.

ARPE-19 cells [3] = experiment: GSH assay (Promega GSH/GSSG-Glo); format: cell-based, human; conditions: 1 mM for 24 hours
Procedure: The production of cellular GSH levels upon exposure to drugs were measured using the GSH assay kit. NACA and GSH-EE were used as controls in this assay. ARPE-19 cells were grown in white 96 well plates. The cells were exposed to 1 mM solutions of NAC, NACME, NACEE, NACPE, NACBE, NACA and glutathione ethyl ester (GSH-EE) for 24 hours. The solutions were removed and washed with PBS once. Afterwards, GSH assay was carried out according to manufacturer recommended protocol (Promega GSH/GSSG-Glo™) and luminescence readings were obtained with a luminometer, which a higher luminescence intensity indicates a higher GSH concentration.

ARPE-19 cells [4] = experiment: JC-1 assay (mitochondrial membrane potential); format: cell-based, human; conditions: 1 mM pretreatment for 1 hour, then 50 μM HQ for 4 hours
Procedure: JC-1 assays measuring the change in mitochondrial membrane potential were carried out to evaluate the protection of the NAC alkyl-ester analogues towards mitochondrial damage.
Typically, JC-1 dye has an inherent green fluorescence at 530 nm. Upon reaching the cell, due to the structural properties of the dye, it will accumulate in the mitochondria making aggregates known as J-aggregates. These J-aggregates consists of a red shifted fluorescence (590 nm). Damaged or unhealthy mitochondria, due to their depolarized membrane potential (compared to healthy ones), will have lesser amounts of aggregates and thus will have low intensity of red emission. Cells with healthy mitochondria will have a more prominent red fluorescence than that in cells with damaged/unhealthy mitochondria due to the ability in forming J-aggregates.
ARPE-19 cells were grown in black, clear bottom 96 well plates. […] With increasing time and dose of HQ, a drop in 590 nm/530 nm fluorescence is seen due to the depolarization of the mitochondria.
Next, to assess the effect of NAC alkyl-ester analogues on oxidative damage in mitochondria (FIG. 12B), ARPE-19 cells were pretreated with 1 mM NAC, NAC alkyl-ester analogues, NACA, GSH-EE and 1 μM MitoQ for 1 and 24 hours. […] The JC-1 solution was removed and washed once with PBS and fluorescence measurements were obtained in PBS at 485 nm excitation and emission at 535 nm and 590 nm. […]

ARPE-19 cells [5] = experiment: CellTiter-Glo assay (ATP); format: cell-based, human; conditions: 1 mM pretreatment, then 500 μM HQ for 3, 6 and 8 hours
Procedure: ARPE-19 cells were grown in white 96 well plates. The cells were first exposed to 500 μM of HQ for 3, 6 and 8 hours and the amount of ATP produced was measured using the CellTiter-Glo assay kit to obtain a time dependent response (FIG. 15). […] Due to the mitochondrial damage caused by HQ, the production of ATP was decreased.

[6] = test system: mitochondrial DNA of ARPE-19 cells; experiment: DNA fragmentation assay (long-extension PCR of mitochondrial DNA); format: cell-based, human; conditions: pretreatment for 24 hours (1 mM), then 500 uM HQ for 24 hours
Procedure: Mitochondrial DNA damage has been linked to pathogenic diseases, including AMD. To determine if pretreatment of RPE cells with NAC alkyl-ester analogues could protect mitochondrial DNA against oxidative damage, a long-extension PCR based assay was used to measure amplification of a large stretch of mitochondrial DNA. The mitochondrial DNA damage assay was performed according to protocols known to those in the art (see Santos, J. H.; Mandavilli, B. S.; Van Houten, B., Measuring Oxidative mtDNA Damage and Repair Using Quantitative PCR. In Mitochondrial DNA: Methods and Protocols, Copeland, W. C., Ed. Humana Press: Totowa, N.J., 2002; pp 159-176). Briefly, ARPE-19 cells were grown to confluency in 6-well plates. The cells were treated with NAC alkyl-ester analogues for 24 hours, washed and then treated with 500 uM HQ for an additional 24 hours. DNA was isolated from the treated cells with a QIAamp DNA mini kit (Qiagen). The DNA samples were diluted to 3 ng/μl for use in PCR reactions. PCR products were quantified using the Quant-iT Picogreen dsDNA Assay kit (Invitrogen). The relative amplification of the large band was normalized to untreated cells. The amplification of the small mitochondrial band was used to normalize the data obtained from the large band to account for mitochondrial DNA copy number.

CCCCOC(=O)[C@H](CS)NC(C)=O [NACBE, N-acetylcysteine butyl ester]
ZO-1 staining of cell-cell junctions (ARPE-19 cells [1]; 1 mM for 24 hours, without HQ): proper cell-cell junctions
ZO-1 staining of cellular junctions after exposure to HQ (ARPE-19 cells [1]; 1 mM pretreatment for 24 hours, then 500 μM HQ for 2 hours): intact
compound and metabolite detected within the cells by HPLC (ARPE-19 cells [2]): both NACBE (prodrug) and NAC (metabolite) within the cells; also recorded: taken up by the cells more effectively than NAC
cellular GSH level (luminescence) compared to untreated cells (ARPE-19 cells [3]): produced the highest amounts of GSH
protection towards mitochondrial damage (JC-1) (ARPE-19 cells [4]): improved protection towards mitochondrial damage
ATP production after HQ insult (ARPE-19 cells [5]): ATP production remained unaltered
protection of mitochondrial DNA amplification against HQ [6]: keep the PCR amplification of the mitochondrial DNA intact
